According to US8455475B2 (Gruenenthal GmbH, priority 2009, dated 2013):

biological target: T1, rat B1R (bradykinin receptor 1) (Rattus norvegicus, UniProt P97583); assay: FLIPR Ca2+ assay (Fluo-4) on CHO K1 cells stably transfected with the B1R gene of the rat (rB1R cells): % inhibition at 10 μM / IC50, agonist Des-Arg9-bradykinin; type: cell-based; settings: CHO-K1, rat B1R
T1 construct: expressed in transfected cells; host or cells: CHO K1 cells
T1 sequence (P97583 1-337): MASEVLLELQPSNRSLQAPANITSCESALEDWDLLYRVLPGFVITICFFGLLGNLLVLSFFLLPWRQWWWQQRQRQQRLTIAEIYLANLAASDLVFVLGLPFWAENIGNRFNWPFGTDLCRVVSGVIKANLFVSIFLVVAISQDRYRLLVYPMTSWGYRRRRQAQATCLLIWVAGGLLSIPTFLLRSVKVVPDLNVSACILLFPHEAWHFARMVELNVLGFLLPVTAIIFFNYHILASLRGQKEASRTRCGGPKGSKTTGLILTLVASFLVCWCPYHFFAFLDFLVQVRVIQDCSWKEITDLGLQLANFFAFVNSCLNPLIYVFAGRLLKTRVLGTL
How it was run: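 Peak fluorescence counts read on FLIPR (λex 488, λem 540 nm) after two additions: compound first, then agonist at EC80 after 10–20 min. Human line challenged with Lys-Des-Arg9-bradykinin, rat line with Des-Arg9-bradykinin. Suppression of Ca2+ inflow expressed as % of maximum inhibition.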

SMILES | inhibition at 10 µM [%]
N#Cc1ccc(CN2CCC3(CC2)CCN(C(=O)c2ccc4c(c2)C(NC(=O)c2c(F)cccc2Cl)CC4)C3)cc1 (centres unmarked) [IND_CC-739, 2-Chloro-N-[6-[8-[(4-cyano-phenyl)-methyl]-2,8-diazaspiro[4.5]decane-2-carbonyl]-2,3-dihydro-1H-inden-1-yl]-6-fluoro-benzamide] | 83
N#Cc1ccccc1CN1CCC2(CC1)CCN(C(=O)c1ccc3c(c1)C(NC(=O)c1c(F)cccc1Cl)CC3)C2 (centres unmarked) [IND_CC-740, 2-Chloro-N-[6-[8-[(2-cyano-phenyl)-methyl]-2,8-diazaspiro[4.5]decane-2-carbonyl]-2,3-dihydro-1H-inden-1-yl]-6-fluoro-benzamide] | 88
O=C(NC1CCc2ccc(C(=O)N3CCC4(CCN(CCCc5cccc(F)c5)CC4)C3)cc21)c1cccc(Cl)c1Cl (centres unmarked) [IND_CC-750, 2,3-Dichloro-N-[6-[8-[3-(3-fluorophenyl)-propyl]-2,8-diazaspiro[4.5]decane-2-carbonyl]-2,3-dihydro-1H-inden-1-yl]-benzamide] | 99
O=C(NC1CCc2ccc(C(=O)N3CCC4(CCN(Cc5ccc6ncccc6c5)CC4)CC3)cc21)c1cccc(Cl)c1Cl (centres unmarked) [IND_CC-754, 2,3-Dichloro-N-[6-[9-(quinolin-6-yl-methyl)-3,9-diazaspiro[5.5]undecane-3-carbonyl]-2,3-dihydro-1H-inden-1-yl]-benzamide] | 87
Cn1nnc2cc(CN3CCC4(CC3)CCN(C(=O)c3ccc5c(c3)C(NC(=O)c3cccc(Cl)c3Cl)CC5)CC4)ccc21 (centres unmarked) [IND_CC-756, 2,3-Dichloro-N-[6-[9-[(1-methyl-1H-benzotriazol-5-yl)-methyl]-3,9-diazaspiro[5.5]undecane-3-carbonyl]-2,3-dihydro-1H-inden-1-yl]-benzamide] | 104
CC(C)CN1CCC2(CC1)CCN(C(=O)c1ccc3c(c1)C(NC(=O)c1cccc(Cl)c1Cl)CC3)CC2 (centres unmarked) [IND_CC-757, 2,3-Dichloro-N-[6-[9-(2-methyl-propyl)-3,9-diazaspiro[5.5]undecane-3-carbonyl]-2,3-dihydro-1H-inden-1-yl]-benzamide] | 52
O=C(NC1CCc2ccc(C(=O)N3CCC4(CCN(CCc5ccccc5)CC4)CC3)cc21)c1cccc(Cl)c1Cl (centres unmarked) [IND_CC-758, 2,3-Dichloro-N-[6-(9-phenethyl-3,9-diazaspiro[5.5]undecane-3-carbonyl)-2,3-dihydro-1H-inden-1-yl]-benzamide] | 86
O=C(NC1CCc2ccc(C(=O)N3CCC4(CCN(CCCc5cccc(F)c5)CC4)CC3)cc21)c1cccc(Cl)c1Cl (centres unmarked) [IND_CC-759, 2,3-Dichloro-N-[6-[9-[3-(3-fluorophenyl)-propyl]-3,9-diazaspiro[5.5]undecane-3-carbonyl]-2,3-dihydro-1H-inden-1-yl]-benzamide] | 78
O=C(NC1CCc2ccc(C(=O)N3CCC4(CCN(CCCc5ccc(F)cc5)CC4)CC3)cc21)c1cccc(Cl)c1Cl (centres unmarked) [IND_CC-760, 2,3-Dichloro-N-[6-[9-[3-(4-fluorophenyl)-propyl]-3,9-diazaspiro[5.5]undecane-3-carbonyl]-2,3-dihydro-1H-inden-1-yl]-benzamide] | 93
Cc1cccc(Cl)c1C(=O)NC1CCc2ccc(C(=O)N3CCC4(CCN(Cc5c(C)nn(C)c5C)CC4)C3)cc21 (centres unmarked) [IND_CC-761, 2-Chloro-6-methyl-N-[6-[8-[(1,3,5-trimethyl-1H-pyrazol-4-yl)-methyl]-2,8-diazaspiro[4.5]decane-2-carbonyl]-2,3-dihydro-1H-inden-1-yl]-benzamide] | 57
CCn1cc(CN2CCC3(CC2)CCN(C(=O)c2ccc4c(c2)C(NC(=O)c2c(C)cccc2Cl)CC4)C3)c(C)n1 (centres unmarked) [IND_CC-762, 2-Chloro-N-[6-[8-[(1-ethyl-3-methyl-1H-pyrazol-4-yl)-methyl]-2,8-diazaspiro-[4.5]decane-2-carbonyl]-2,3-dihydro-1H-inden-1-yl]-6-methyl-benzamide] | 55
Cc1cccc(Cl)c1C(=O)NC1CCc2ccc(C(=O)N3CCC4(CCN(Cc5ccc6ncccc6c5)CC4)C3)cc21 (centres unmarked) [IND_CC-764, 2-Chloro-6-methyl-N-[6-[8-(quinolin-6-yl-methyl)-2,8-diazaspiro[4.5]decane-2-carbonyl]-2,3-dihydro-1H-inden-1-yl]-benzamide] | 71
Cc1cccc(Cl)c1C(=O)NC1CCc2ccc(C(=O)N3CCC4(CCN(Cc5ccc6nccnc6c5)CC4)C3)cc21 (centres unmarked) [IND_CC-765, 2-Chloro-6-methyl-N-[6-[8-(quinoxalin-6-yl-methyl)-2,8-diazaspiro[4.5]-decane-2-carbonyl]-2,3-dihydro-1H-inden-1-yl]-benzamide] | 105

Further lines, results first:

inhibition at 10 µM [%] | SMILES
50 | CCn1cc(CN2CCC3(CC2)CCN(C(=O)c2ccc4c(c2)C(NC(=O)c2cccc(Cl)c2Cl)CC4)C3)c(C)n1 (centres unmarked) [IND_CC-742, 2,3-Dichloro-N-[6-[8-[(1-ethyl-3-methyl-1H-pyrazol-4-yl)-methyl]-2,8-diazaspiro[4.5]decane-2-carbonyl]-2,3-dihydro-1H-inden-1-yl]-benzamide]
80 | CN(C)c1ncc(CN2CCC3(CC2)CCN(C(=O)c2ccc4c(c2)C(NC(=O)c2cccc(Cl)c2Cl)CC4)C3)cn1 (centres unmarked) [IND_CC-743, 2,3-Dichloro-N-[6-[8-[(2-dimethylamino-pyrimidin-5-yl)-methyl]-2,8-diazaspiro[4.5]decane-2-carbonyl]-2,3-dihydro-1H-inden-1-yl]-benzamide]
71 | O=C(NC1CCc2ccc(C(=O)N3CCC4(CCN(Cc5ccc6ncccc6c5)CC4)C3)cc21)c1cccc(Cl)c1Cl (centres unmarked) [IND_CC-744, 2,3-Dichloro-N-[6-[8-(quinolin-6-yl-methyl)-2,8-diazaspiro[4.5]decane-2-carbonyl]-2,3-dihydro-1H-inden-1-yl]-benzamide]
70 | O=C(NC1CCc2ccc(C(=O)N3CCC4(CCN(Cc5ccc6nccnc6c5)CC4)C3)cc21)c1cccc(Cl)c1Cl (centres unmarked) [IND_CC-745, 2,3-Dichloro-N-[6-[8-(quinoxalin-6-yl-methyl)-2,8-diazaspiro[4.5]decane-2-carbonyl]-2,3-dihydro-1H-inden-1-yl]-benzamide]
78 | Cn1nnc2cc(CN3CCC4(CC3)CCN(C(=O)c3ccc5c(c3)C(NC(=O)c3cccc(Cl)c3Cl)CC5)C4)ccc21 (centres unmarked) [IND_CC-746, 2,3-Dichloro-N-[6-[8-[(1-methyl-1H-benzotriazol-5-yl)-methyl]-2,8-diazaspiro[4.5]decane-2-carbonyl]-2,3-dihydro-1H-inden-1-yl]-benzamide]
59 | CC(C)CN1CCC2(CC1)CCN(C(=O)c1ccc3c(c1)C(NC(=O)c1cccc(Cl)c1Cl)CC3)C2 (centres unmarked) [IND_CC-747, 2,3-Dichloro-N-[6-[8-(2-methyl-propyl)-2,8-diazaspiro[4.5]decane-2-carbonyl]-2,3-dihydro-1H-inden-1-yl]-benzamide]
70 | CCC(CC)CN1CCC2(CC1)CCN(C(=O)c1ccc3c(c1)C(NC(=O)c1cccc(Cl)c1Cl)CC3)C2 (centres unmarked) [IND_CC-748, 2,3-Dichloro-N-[6-[8-(2-ethyl-butyl)-2,8-diazaspiro[4.5]decane-2-carbonyl]-2,3-dihydro-1H-inden-1-yl]-benzamide]
70 | O=C(NC1CCc2ccc(C(=O)N3CCC4(CCN(CCc5ccccc5)CC4)C3)cc21)c1cccc(Cl)c1Cl (centres unmarked) [IND_CC-749, 2,3-Dichloro-N-[6-(8-phenethyl-2,8-diazaspiro[4.5]decane-2-carbonyl)-2,3-dihydro-1H-inden-1-yl]-benzamide]
98 | O=C(NC1CCc2ccc(C(=O)N3CCC4(CCN(CCCc5ccc(F)cc5)CC4)C3)cc21)c1cccc(Cl)c1Cl (centres unmarked) [IND_CC-751, 2,3-Dichloro-N-[6-[8-[3-(4-fluorophenyl)-propyl]-2,8-diazaspiro[4.5]decane-2-carbonyl]-2,3-dihydro-1H-inden-1-yl]-benzamide]
69 | CCn1cc(CN2CCC3(CC2)CCN(C(=O)c2ccc4c(c2)C(NC(=O)c2cccc(Cl)c2Cl)CC4)CC3)c(C)n1 (centres unmarked) [IND_CC-752, 2,3-Dichloro-N-[6-[9-[(1-ethyl-3-methyl-1H-pyrazol-4-yl)-methyl]-3,9-diazaspiro[5.5]undecane-3-carbonyl]-2,3-dihydro-1H-inden-1-yl]-benzamide]
90 | CN(C)c1ncc(CN2CCC3(CC2)CCN(C(=O)c2ccc4c(c2)C(NC(=O)c2cccc(Cl)c2Cl)CC4)CC3)cn1 (centres unmarked) [IND_CC-753, 2,3-Dichloro-N-[6-[9-[(2-dimethylamino-pyrimidin-5-yl)-methyl]-3,9-diazaspiro[5.5]undecane-3-carbonyl]-2,3-dihydro-1H-inden-1-yl]-benzamide]
92 | O=C(NC1CCc2ccc(C(=O)N3CCC4(CCN(Cc5ccc6nccnc6c5)CC4)CC3)cc21)c1cccc(Cl)c1Cl (centres unmarked) [IND_CC-755, 2,3-Dichloro-N-[6-[9-(quinoxalin-6-yl-methyl)-3,9-diazaspiro[5.5]undecane-3-carbonyl]-2,3-dihydro-1H-inden-1-yl]-benzamide]
74 | Cc1cccc(Cl)c1C(=O)NC1CCc2ccc(C(=O)N3CCC4(CCN(Cc5cnc(N(C)C)nc5)CC4)C3)cc21 (centres unmarked) [IND_CC-763, 2-Chloro-N-[6-[8-[(2-dimethylamino-pyrimidin-5-yl)-methyl]-2,8-diazaspiro-[4.5]decane-2-carbonyl]-2,3-dihydro-1H-inden-1-yl]-6-methyl-benzamide]
